Data from BindingDB's records for doi:10.1111/j.2042-7158.1986.tb04590.x (1986).

Each compound was assayed against Sigma non-opioid intracellular receptor 1 (Cavia porcellus, UniProt Q60492).
Chain of Sigma non-opioid intracellular receptor 1 (Q60492 whole entry): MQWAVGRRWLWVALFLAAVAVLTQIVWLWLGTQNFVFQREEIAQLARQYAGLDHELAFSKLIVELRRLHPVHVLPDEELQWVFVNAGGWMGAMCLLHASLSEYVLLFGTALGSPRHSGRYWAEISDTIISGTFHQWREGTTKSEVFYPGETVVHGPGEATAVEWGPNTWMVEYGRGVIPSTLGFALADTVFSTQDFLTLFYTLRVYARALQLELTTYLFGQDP
Compound `CN(C)CCC=C1c2ccccc2CCc2ccccc21` has a Ki of 300 nM. For `CN(C)CCCN1c2ccccc2CCc2ccccc21`, the Ki was 520 nM. `CN(C)CCCN1c2ccccc2Sc2ccc(C(F)(F)F)cc21` [TRIFLUPROMAZINE] gave a Ki of 605 nM. Compound `Clc1cccc(Cl)c1N=C1NCCN1` [2-(2,6-dichloroanilino)-2-imidazoline] has a Ki greater than 10000 nM. Compound `CNCCC=C1c2ccccc2CCc2ccccc21` [NORTRIPTYLINE] has a Ki of 2000 nM. `CN(C)CCCN1c2ccccc2Sc2ccc(Cl)cc21` [[3-(2-Chloro-phenothiazin-10-yl)-propyl]-dimethyl-amine(Chlorpromazine)] showed a Ki of 1470 nM.
